Target: T1, Tyrosine-protein phosphatase non-receptor type 1 (Homo sapiens, UniProt P18031)
T1 sequence (P18031 whole entry): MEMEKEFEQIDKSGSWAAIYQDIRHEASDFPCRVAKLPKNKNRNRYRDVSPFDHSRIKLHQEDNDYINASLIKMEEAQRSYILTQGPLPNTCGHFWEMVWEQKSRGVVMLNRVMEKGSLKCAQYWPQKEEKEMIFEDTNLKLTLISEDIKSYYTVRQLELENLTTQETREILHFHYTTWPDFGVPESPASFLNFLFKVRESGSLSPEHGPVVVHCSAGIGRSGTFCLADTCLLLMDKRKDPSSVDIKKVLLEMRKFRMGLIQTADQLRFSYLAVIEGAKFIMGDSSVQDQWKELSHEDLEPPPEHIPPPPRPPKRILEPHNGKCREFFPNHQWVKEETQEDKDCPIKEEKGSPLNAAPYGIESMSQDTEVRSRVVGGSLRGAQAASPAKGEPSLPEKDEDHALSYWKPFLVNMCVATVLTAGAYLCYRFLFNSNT
Assay: Inhibition of human recombinant PTP1B

| SMILES | IC50 [µM] |
| --- | --- |
| COc1ccc(/C=C/C(=O)c2ccc(O)cc2O)cc1 | > 60 |
| COc1cc(OC)c2c(=O)c(-c3ccc(O)cc3)coc2c1 | > 60 |
| COc1c(CC=C(C)C)cc([C@@H]2CC(=O)c3c(O)cc(O)cc3O2)cc1CC=C(C)C | 26.3 |
| COc1c(CC=C(C)C)cc([C@@H]2CC(=O)c3ccc(O)cc3O2)cc1CC=C(C)C | 21.2 |
| COc1c(CC=C(C)C)cc(/C=C/C(=O)c2ccc(O)cc2O)cc1CC=C(C)C | 14.8 |
| COc1c(/C=C/C(C)(C)O)cc([C@@H]2CC(=O)c3ccc(O)cc3O2)cc1CC=C(C)C | > 60 |
| CC(C)=CCc1cc([C@@H]2CC(=O)c3ccc(O)cc3O2)cc(CC=C(C)C)c1O [ABYSSINONE IV] | 16 |
| CC(C)=CCc1cc([C@@H]2CC(=O)c3c(O)cc(O)cc3O2)cc(CC=C(C)C)c1O [ABYSSINONE V] | 39.7 |
| CC1(C)C=Cc2c(cc3occ(-c4ccc(O)cc4)c(=O)c3c2O)O1 [ALPINUMISOFLAVONE] | 41.5 |
| O=C(/C=C/c1ccc(O)cc1)c1ccc(O)cc1O [ISOLIQUIRITIGENIN] | > 60 |
| O=C1C[C@@H](c2ccc(O)cc2)Oc2cc(O)ccc21 [LIQUIRTIGENIN] | > 60 |
| C[C@@H]1O[C@@H](O[C@H]2[C@H](Oc3cc(O)c4c(c3)O[C@H](c3ccc(O)cc3)CC4=O)O[C@H](CO)[C@@H](O)[C@@H]2O)[C@H](O)[C@H](O)[C@H]1O [NARINGIN] | > 60 |
| CC(C)=CCc1cc([C@@H]2CC(=O)c3c(O)cc(O)cc3O2)cc2c1OC(C)(C)C=C2 [SIGMOIDIN E] | 39.2 |
